Measurements from patent US7812117B2, “Vasostatin as marrow protectant” (The United States of America as represented by the …, priority 1998, dated 2010).

Columns and labels:
murine bone marrow cells [1] = conditions: C57BL/6NCR, mouse, 77 nM
murine bone marrow cells [2] = assay: Murine bone marrow cell proliferation in vitro ([3H] thymidine incorporation); conditions: cisplatinum 25 μM, regardless the addition of vaso

Structure (SMILES) | reduction of bone marrow cell proliferation (murine bone marrow cells [1]) | bone marrow cell proliferation induced by IL-3 at the highest dose of cisplatinum (murine bone marrow cells [2])
COc1cc([C@@H]2c3cc4c(cc3[C@@H](O[C@@H]3O[C@@H]5CO[C@@H](C)O[C@H]5[C@H](O)[C@H]3O)[C@H]3COC(=O)[C@H]23)OCO4)cc(OC)c1O [Etoposide, reference compound] | 1.5-2.7 fold | –
N.N.[Cl][Pt][Cl] [Cisplatinum, cis-diammine-dichloroplatinum II, reference compound] | – | minimal
